In the experiment the target is CDK7/CycH/MNAT1 (Homo sapiens (Human), UniProt P50613). The experiment is described as follows: Biochemical Assay for CDK7 (TR-FRET kinase assay). Particulars: 60 min pre-incubation with kinase, 1 mM ATP; for % inhibition @ 10 μM / inhibition at 10 µM: 10 μM compound. Here is the method:
Biochemical Assay for CDK7:
The ability of compounds to inhibit CDK7 kinase activity was tested in a TR-FRET assay using 5 nM of CDK7/CycH/MNAT1 obtained from Invitrogen, USA. Test compounds were pre-incubated with the kinase at room temperature for 60 min. After the incubation, substrate mix [100 nM Ultra-light MBP (Perkin Elmer, USA) and 1 mM ATP (Sigma)] was added. The above reaction was stopped by the addition of 40 mM EDTA after 60 minutes of kinase reaction. 1 nM Eu-labelled antiphospho-MBP antibody [Perkin Elmer, USA] was added, mixed well and the fluorescence emission at 615 nm and 665 nm [excitation at 340 nm] was measured. The final DMSO concentration in the assay was 1%. For IC50 determination, appropriate concentrations were made by ⅓^rd serial dilutions of 10 mM DMSO stock solution of test compound. All the fluorescence measurements were made in a Victor 3 Multilabel Counter [Perkin Elmer, USA]. The IC50 was determined by fitting the dose response data to sigmoidal curve fitting equation using GraphPad Prism software V5. To identify compounds that inhibit CDK7 irreversibly, time depended inhibition studies were carried by pre-incubating compound with the enzyme at three time points (20, 60 and 180 min) and carrying out assay as described above.
The compounds were screened by the above mentioned assay procedure.

pIC50: −log10 of the molar value.

Sequence of CDK7/CycH/MNAT1 (P50613 whole entry): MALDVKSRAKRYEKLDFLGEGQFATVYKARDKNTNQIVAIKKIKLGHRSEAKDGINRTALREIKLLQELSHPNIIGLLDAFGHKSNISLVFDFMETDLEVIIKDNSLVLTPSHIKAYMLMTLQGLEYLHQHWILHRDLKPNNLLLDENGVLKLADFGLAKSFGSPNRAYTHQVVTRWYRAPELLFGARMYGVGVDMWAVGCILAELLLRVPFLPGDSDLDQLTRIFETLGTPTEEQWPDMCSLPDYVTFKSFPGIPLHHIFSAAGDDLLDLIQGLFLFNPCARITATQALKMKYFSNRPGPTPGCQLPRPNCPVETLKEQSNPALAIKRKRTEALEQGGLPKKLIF
Sequence of CDK7/CycH/MNAT1 (P51946 whole entry partner): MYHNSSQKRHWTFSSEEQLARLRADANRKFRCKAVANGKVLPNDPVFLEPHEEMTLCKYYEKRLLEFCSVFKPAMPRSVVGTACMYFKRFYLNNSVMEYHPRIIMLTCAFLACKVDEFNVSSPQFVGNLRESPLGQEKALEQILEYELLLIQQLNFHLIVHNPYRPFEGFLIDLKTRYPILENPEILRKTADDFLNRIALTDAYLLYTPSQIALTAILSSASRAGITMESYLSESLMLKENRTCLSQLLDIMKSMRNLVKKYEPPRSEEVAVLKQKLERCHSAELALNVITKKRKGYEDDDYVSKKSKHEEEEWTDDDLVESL
Sequence of CDK7/CycH/MNAT1 (P51948 whole entry partner): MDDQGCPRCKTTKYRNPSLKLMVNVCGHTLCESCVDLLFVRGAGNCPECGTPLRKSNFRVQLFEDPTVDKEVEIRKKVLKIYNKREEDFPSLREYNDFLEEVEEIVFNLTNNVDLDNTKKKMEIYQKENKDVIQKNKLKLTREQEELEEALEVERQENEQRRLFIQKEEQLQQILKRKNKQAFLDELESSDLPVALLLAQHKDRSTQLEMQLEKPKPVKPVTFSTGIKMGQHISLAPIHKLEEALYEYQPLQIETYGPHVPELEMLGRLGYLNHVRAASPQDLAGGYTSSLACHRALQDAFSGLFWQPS

The pIC50 is the IC50 on a negative log10 scale, so that one unit is a factor of ten. Low readings indicate a high IC50, high ones a low IC50. As to `CC(C(=O)Nc1cc(C2CC2)[nH]n1)c1cccc(-c2ccc(NC(=O)/C=C/CN3CC[C@@H](F)C3)nc2)c1` (single isomer, unassigned) [Compound 51], the “% inhibition @ 10 μM” value worked out at 90% and the negative-log IC50 (pIC50) is under 7.00.

For orientation: inhibition means the relative decrease from the control value, in per cent. High values mean a strong effect, low ones a weak effect. For `C=CC(=O)Nc1ccc(-c2cccc(C(CC)C(=O)Nc3cc(C4CC4)[nH]n3)c2)nc1` (centres unmarked) [Compound 26, 2-(3-(5-acrylamidopyridin-2-yl)phenyl)-N-(5-cyclopropyl-1H-pyrazol-3-yl)butanamide], the inhibition at 10 µM turned out to be 96% and the negative-log IC50 (pIC50) is over 7.60.

`CC(C(=O)Nc1cc(C2CC2)[nH]n1)c1cccc(-c2ccc(NC(=O)/C=C/CN3CCC(F)C3)c(F)n2)c1` (centres unmarked) [Compound 64, (E)-N-(6-(3-(1-((5-cyclopropyl-1H-pyrazol-3-yl)amino)-1-oxopropan-2-yl)phenyl)-2-fluoropyridin-3-yl)-4-(3-fluoropyrrolidin-1-yl)but-2-enamide] had an inhibition at 10 µM of 94% and a pIC50 of 7.00 to 7.60.

On to `CC(C(=O)Nc1cc(C2CC2)[nH]n1)c1cccc(-c2ccc(NC(=O)/C=C/CN(C)C)cn2)c1` (centres unmarked) [Compound 16, (E)-N-(6-(3-(1-((5-cyclopropyl-1H-pyrazol-3-yl)amino)-1-oxopropan-2-yl)phenyl)pyridin-3-yl)-4-(dimethylamino)but-2-enamide], for which the inhibition at 10 µM is 95% and the pIC50 was 7.00 to 7.60.

The compound `CC(C(=O)Nc1cc(C2CC2)[nH]n1)c1cccc(-c2ccc(NC(=O)/C=C/CN(C)C)c(F)c2)c1` (centres unmarked) [Compound 14, (E)-N-(3′-(1-((5-cyclopropyl-1H-pyrazol-3-yl)amino)-1-oxopropan-2-yl)-3-fluoro-[1,1′-biphenyl]-4-yl)-4-(dimethylamino)but-2-enamide] showed an inhibition at 10 µM of 95% and a negative logarithm of the IC50 (pIC50) of under 7.00.

Compound `CC(C(=O)Nc1cc(C2CC2)[nH]n1)c1cccc(-c2ccc(NC/C=C/C(=O)N(C)C)cn2)c1` (centres unmarked) [Compound 37, (E)-4-((6-(3-(1-((5-cyclopropyl-1H-pyrazol-3-yl)amino)-1-oxopropan-2-yl)phenyl)pyridin-3-yl)amino)-N,N-dimethylbut-2-enamide] had an inhibition at 10 µM of 67% and a pIC50 of under 7.00.

`CCN(CC)C/C=C/C(=O)Nc1ccc(-c2cccc(C(C)C(=O)Nc3cc(C4CC4)[nH]n3)c2)cc1F` (centres unmarked) [Compound 32, (E)-N-(3′-(1-((5-cyclopropyl-1H-pyrazol-3-yl)amino)-1-oxopropan-2-yl)-3-fluoro-[1,1′-biphenyl]-4-yl)-4-(diethylamino)but-2-enamide] showed an inhibition at 10 µM of 100% and a negative logarithm of the IC50 (pIC50) of over 7.60.

`C=CC(=O)Nc1ccc(-c2cccc(C(C)C(=O)Nc3cc(C4CC4)[nH]n3)c2)cc1F` (centres unmarked) [Compound 19, N-(3′-(1-((5-cyclopropyl-1H-pyrazol-3-yl)amino)-1-oxopropan-2-yl)-3-fluoro-[1,1′-biphenyl]-4-yl)acrylamide] had an inhibition at 10 µM of 97% and a negative logarithm of the IC50 (pIC50) of 7.00 to 7.60.

The compound `CC(C)(C(=O)Nc1cc(C2CC2)[nH]n1)c1cccc(-c2ccc(NC(=O)/C=C/CN3CCCC3)nc2)c1` [Compound 95, (E)-N-(5-(3-(1-((5-cyclopropyl-1H-pyrazol-3-yl)amino)-2-methyl-1-oxopropan-2-yl)phenyl)pyridin-2-yl)-4-(pyrrolidin-1-yl)but-2-enamide] showed an inhibition at 10 µM of 71% and a pIC50 of under 7.00.

On to `CC(C(=O)Nc1cc(C2CC2)[nH]n1)c1cccc(-c2ccc(NC(=O)/C=C/CN3CCCC3)nc2)c1` (single isomer, unassigned) [Compound 54, (E)-N-(5-(3-(1-((5-cyclopropyl-1H-pyrazol-3-yl)amino)-1-oxopropan-2-yl)-phenyl)pyridin-2-yl)-4-(pyrrolidin-1-yl)but-2-enamide], for which the “% inhibition @ 10 μM” value was found to be 78% and the negative logarithm of the IC50 (pIC50) was over 7.60.

As for `CC(C(=O)Nc1cc(C2CC2)[nH]n1)c1cccc(-c2ccc(NC(=O)/C=C/CN3CCOCC3)nc2)c1` (centres unmarked) [Compound 10, (E)-N-(5-(3-(1-((5-cyclopropyl-1H-pyrazol-3-yl)amino)-1-oxopropan-2-yl)phenyl)pyridin-2-yl)-4-morpholinobut-2-enamide], 10 µM produced 99% inhibition and the pIC50 is over 7.60.

For `CC(C(=O)Nc1cc(C2CC2)[nH]n1)c1cccc(-c2ccc(NC(=O)/C=C/CN(C)C)cc2)c1` (single isomer, unassigned) [Compound 2, (E)-N-(3′-(1-((5-cyclopropyl-1H-pyrazol-3-yl)amino)-1-oxopropan-2-yl)-[1,1′-biphenyl]-4-yl)-4-(dimethylamino)but-2-enamide], the “% inhibition @ 10 μM” value is recorded as 69% and the pIC50 was under 7.00.

In turn, `C[C@H](C(=O)Nc1cc(C2CC2)[nH]n1)c1cccc(-c2ccc(NC(=O)/C=C/CN3CCOCC3)nc2)c1` [Compound 93, (S,E)-N-(5-(3-(1-((5-cyclopropyl-1H-pyrazol-3-yl)amino)-1-oxopropan-2-yl)phenyl)pyridin-2-yl)-4-morpholinobut-2-enamide] had an inhibition at 10 µM of 100% and a pIC50 of over 7.60.

The compound `CC(C(=O)Nc1cc(C2CC2)[nH]n1)c1cccc(-c2cncc(NC(=O)/C=C/CN3CCOCC3)c2)c1` (centres unmarked) [Compound 60, (E)-N-(5-(3-(1-((5-cyclopropyl-1H-pyrazol-3-yl)amino)-1-oxopropan-2-yl)phenyl)pyridin-3-yl)-4-morpholinobut-2-enamide] had an inhibition at 10 µM of 99% and a pIC50 of 7.00 to 7.60.

For the compound `C=CC(=O)Nc1ccc(-c2cccc(C(C(=O)Nc3cc(C4CC4)[nH]n3)C(C)C)c2)cc1F` (centres unmarked) [Compound 25, 2-(4′-acrylamido-3′-fluoro-[1,1′-biphenyl]-3-yl)-N-(5-cyclopropyl-1H-pyrazol-3-yl)-3-methylbutanamide], testing at 10 µM gave an inhibition of 97% and the negative-log IC50 (pIC50) was 7.00 to 7.60.

`C=CC(=O)NCc1ccc(-c2cccc(C(C)C(=O)Nc3cc(C4CC4)[nH]n3)c2)cn1` (centres unmarked) [Compound 74, N-((5-(3-(1-((5-cyclopropyl-1H-pyrazol-3-yl)amino)-1-oxopropan-2-yl)phenyl)pyridin-2-yl)methyl)acrylamide] showed an inhibition at 10 µM of 79% and a negative-log IC50 (pIC50) of under 7.00.

For `CC(C(=O)Nc1cc(C2CC2)[nH]n1)c1cccc(-c2ccc(NC(=O)/C=C/Cn3ccnc3)nc2)c1` (centres unmarked) [Compound 69, (E)-N-(5-(3-(1-((5-cyclopropyl-1H-pyrazol-3-yl)amino)-1-oxopropan-2-yl)phenyl)pyridin-2-yl)-4-(1H-imidazol-1-yl)but-2-enamide], the inhibition at 10 µM was found to be 87% and the pIC50 is 7.00 to 7.60.

As for `CC(C(=O)Nc1cc(C2CC2)[nH]n1)c1cccc(-c2ccc(NC(=O)/C=C/CN3CC[C@H](F)C3)nc2)c1` (single isomer, unassigned) [Compound 48], the “% inhibition @ 10 μM” value came out at 90% and the negative-log IC50 (pIC50) is 7.00 to 7.60.

In the case of `COC[C@@H]1C[C@H](F)CN1C/C=C/C(=O)Nc1ccc(-c2cccc(C(C)C(=O)Nc3cc(C4CC4)[nH]n3)c2)cn1` (stereo partly drawn) [Compound 77, (E)-N-(5-(3-(1-((5-cyclopropyl-1H-pyrazol-3-yl)amino)-1-oxopropan-2-yl)phenyl)pyridin-2-yl)-4-((2S,4S)-4-fluoro-2-(methoxymethyl)pyrrolidin-1-yl)but-2-enamide], the inhibition at 10 µM was 98% and the pIC50 is 7.00 to 7.60.

For the origin of these results see US11174232B2, “Substituted heterocyclyl derivatives as CDK inhibitors” (Aurigene Discovery Technologies Limited, priority 2015, dated 2021).
